In patent US12258328B2, “6-membered heteroaryl-containing aminopyridine compounds as EGFR inhibitors” (YUHAN CORPORATION, priority 2021, dated 2025):
Read-outs that look alike come from different tables or passages of the source.

Columns and labels:
EGFR del19/T790M/C797S = EGFR del19/T790M/C797S (Homo sapiens, UniProt P00533, C797S/DEL746-750/T790M); assay: Biochemical EGFR kinase assay (Lance Ultra TR-FRET), triple mutant del19/T790M/C797S
Method in brief: (§1)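 Step 1: compound in kinase buffer, 0.003–10 μM. Step 2: kinase reaction 1 h at room temperature. Step 4: TR-FRET read at 615/665 nm; IC50 calculated.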

EGFR L858R/T790M/C797S = EGFR L858R/T790M/C797S (Homo sapiens, UniProt P00533, C797S/L858R/T790M); assay: Biochemical EGFR kinase assay (Lance Ultra TR-FRET), triple mutant L858R/T790M/C797S
Method in brief: as §1

EGFR del19/C797S = EGFR del19/C797S (Homo sapiens, UniProt P00533, C797S/DEL746-750); assay: Biochemical EGFR kinase assay (Lance Ultra TR-FRET), double mutant del19/C797S
Method in brief: as §1

EGFR L858R/C797S = EGFR L858R/C797S (Homo sapiens, UniProt P00533, C797S/L858R); assay: Biochemical EGFR kinase assay (Lance Ultra TR-FRET), double mutant L858R/C797S
Method in brief: as §1

EGFR wildtype = EGFR wildtype (Homo sapiens, UniProt P00533); assay: Biochemical EGFR kinase assay (Lance Ultra TR-FRET), wildtype
Method in brief: as §1

[1] = ATP at Km, read-out: IC50 del19/T790M/C797S, Km ATP
[2] = ATP at Km, read-out: IC50 L858R/T790M/C797S, Km ATP
[3] = IC50 L858R/T790M/C797S, 100 μM ATP
[4] = ATP at Km, read-out: IC50 L858R/C797S, Km ATP
[5] = ATP at Km, read-out: IC50 WT, Km ATP
[6] = Km ATP, read-out: IC50 del19/T790M/C797S (nM) Km ATP
[7] = Km ATP, read-out: IC50 L858R/T790M/C797S (nM) Km ATP
[8] = Km ATP, read-out: IC50 del19/C797S (nM) Km ATP
[9] = Km ATP, read-out: IC50 L858R/C797S (nM) Km ATP
[10] = Km ATP, read-out: IC50 WT (nM) Km ATP
[11] = IC50 del19/T790M/C797S, 100 μM ATP
[12] = IC50 del19/T790M/C797S (nM) 100 μM ATP, 100 μM ATP
[13] = IC50 L858R/T790M/C797S (nM) 100 μM ATP, 100 μM ATP
[14] = IC50 del19/C797S (nM) 100 μM ATP, 100 μM ATP
[15] = IC50 L858R/C797S (nM) 100 μM ATP, 100 μM ATP
[16] = IC50 WT (nM) 100 μM ATP, 100 μM ATP
[17] = ATP at Km, read-out: IC50 del19/C797S, Km ATP

EGFR L858R/C797S, sequence (P00533 25-1210 C797S/L858R): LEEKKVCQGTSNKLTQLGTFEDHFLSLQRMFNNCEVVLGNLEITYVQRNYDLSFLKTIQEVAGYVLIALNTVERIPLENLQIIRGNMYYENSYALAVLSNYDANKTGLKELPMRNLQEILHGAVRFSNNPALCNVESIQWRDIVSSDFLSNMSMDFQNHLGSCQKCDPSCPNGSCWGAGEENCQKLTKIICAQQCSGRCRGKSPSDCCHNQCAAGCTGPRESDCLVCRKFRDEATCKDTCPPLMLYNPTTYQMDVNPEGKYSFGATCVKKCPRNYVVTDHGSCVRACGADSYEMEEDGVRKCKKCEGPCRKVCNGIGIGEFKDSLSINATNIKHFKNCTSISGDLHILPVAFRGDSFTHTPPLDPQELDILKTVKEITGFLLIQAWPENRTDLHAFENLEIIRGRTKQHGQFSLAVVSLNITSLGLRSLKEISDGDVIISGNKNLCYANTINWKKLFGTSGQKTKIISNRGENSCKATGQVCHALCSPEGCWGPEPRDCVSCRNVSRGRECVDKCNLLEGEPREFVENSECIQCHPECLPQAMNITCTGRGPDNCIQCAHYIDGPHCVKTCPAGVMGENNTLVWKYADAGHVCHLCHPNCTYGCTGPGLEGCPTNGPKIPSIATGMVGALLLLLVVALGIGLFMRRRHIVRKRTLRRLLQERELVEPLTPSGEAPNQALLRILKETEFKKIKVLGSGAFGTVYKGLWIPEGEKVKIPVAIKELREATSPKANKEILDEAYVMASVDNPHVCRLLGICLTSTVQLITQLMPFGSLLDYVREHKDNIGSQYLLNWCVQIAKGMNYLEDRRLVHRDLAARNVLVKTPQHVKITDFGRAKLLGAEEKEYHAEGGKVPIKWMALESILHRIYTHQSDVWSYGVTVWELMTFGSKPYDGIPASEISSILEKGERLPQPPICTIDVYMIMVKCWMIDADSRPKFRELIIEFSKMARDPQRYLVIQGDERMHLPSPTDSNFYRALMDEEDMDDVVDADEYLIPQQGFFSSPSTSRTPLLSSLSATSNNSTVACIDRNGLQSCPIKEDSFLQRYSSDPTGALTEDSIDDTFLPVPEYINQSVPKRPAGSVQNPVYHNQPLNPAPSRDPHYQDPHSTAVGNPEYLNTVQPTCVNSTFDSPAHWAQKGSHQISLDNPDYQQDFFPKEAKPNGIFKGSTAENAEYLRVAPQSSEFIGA
EGFR del19/C797S, sequence (P00533 with tags, fused parts or gaps DEL746-750/C797S): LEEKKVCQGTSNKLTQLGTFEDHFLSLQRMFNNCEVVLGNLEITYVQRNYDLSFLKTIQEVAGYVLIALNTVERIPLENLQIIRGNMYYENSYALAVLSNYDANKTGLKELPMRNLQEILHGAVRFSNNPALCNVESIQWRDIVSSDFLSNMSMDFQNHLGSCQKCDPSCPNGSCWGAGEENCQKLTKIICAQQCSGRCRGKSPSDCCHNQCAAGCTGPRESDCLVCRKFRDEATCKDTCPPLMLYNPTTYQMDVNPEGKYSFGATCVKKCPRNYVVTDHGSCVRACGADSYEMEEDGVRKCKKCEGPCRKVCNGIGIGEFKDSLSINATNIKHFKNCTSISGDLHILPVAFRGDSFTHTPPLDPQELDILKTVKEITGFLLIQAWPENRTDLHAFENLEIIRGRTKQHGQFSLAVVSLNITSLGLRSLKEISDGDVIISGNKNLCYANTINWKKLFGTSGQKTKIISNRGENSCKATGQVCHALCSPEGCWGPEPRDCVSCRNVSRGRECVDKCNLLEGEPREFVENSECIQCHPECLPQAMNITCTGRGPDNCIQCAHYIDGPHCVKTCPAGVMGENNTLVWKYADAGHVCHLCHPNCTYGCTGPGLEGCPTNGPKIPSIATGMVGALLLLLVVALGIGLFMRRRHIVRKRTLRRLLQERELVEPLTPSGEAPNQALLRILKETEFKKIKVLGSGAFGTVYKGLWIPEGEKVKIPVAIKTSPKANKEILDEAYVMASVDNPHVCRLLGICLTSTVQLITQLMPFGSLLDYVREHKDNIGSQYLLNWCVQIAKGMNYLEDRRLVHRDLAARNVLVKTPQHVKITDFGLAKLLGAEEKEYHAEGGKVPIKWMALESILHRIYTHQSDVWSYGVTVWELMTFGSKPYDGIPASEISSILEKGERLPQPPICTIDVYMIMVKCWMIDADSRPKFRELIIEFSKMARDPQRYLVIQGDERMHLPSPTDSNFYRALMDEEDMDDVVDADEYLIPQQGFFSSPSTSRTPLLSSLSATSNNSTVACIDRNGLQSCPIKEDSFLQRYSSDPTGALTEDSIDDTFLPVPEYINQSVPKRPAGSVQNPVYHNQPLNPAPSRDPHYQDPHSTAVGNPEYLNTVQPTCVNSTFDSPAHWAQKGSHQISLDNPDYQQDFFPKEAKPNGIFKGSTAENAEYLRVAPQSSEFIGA
EGFR L858R/T790M/C797S, sequence (P00533 25-1210 T790M/C797S/L858R): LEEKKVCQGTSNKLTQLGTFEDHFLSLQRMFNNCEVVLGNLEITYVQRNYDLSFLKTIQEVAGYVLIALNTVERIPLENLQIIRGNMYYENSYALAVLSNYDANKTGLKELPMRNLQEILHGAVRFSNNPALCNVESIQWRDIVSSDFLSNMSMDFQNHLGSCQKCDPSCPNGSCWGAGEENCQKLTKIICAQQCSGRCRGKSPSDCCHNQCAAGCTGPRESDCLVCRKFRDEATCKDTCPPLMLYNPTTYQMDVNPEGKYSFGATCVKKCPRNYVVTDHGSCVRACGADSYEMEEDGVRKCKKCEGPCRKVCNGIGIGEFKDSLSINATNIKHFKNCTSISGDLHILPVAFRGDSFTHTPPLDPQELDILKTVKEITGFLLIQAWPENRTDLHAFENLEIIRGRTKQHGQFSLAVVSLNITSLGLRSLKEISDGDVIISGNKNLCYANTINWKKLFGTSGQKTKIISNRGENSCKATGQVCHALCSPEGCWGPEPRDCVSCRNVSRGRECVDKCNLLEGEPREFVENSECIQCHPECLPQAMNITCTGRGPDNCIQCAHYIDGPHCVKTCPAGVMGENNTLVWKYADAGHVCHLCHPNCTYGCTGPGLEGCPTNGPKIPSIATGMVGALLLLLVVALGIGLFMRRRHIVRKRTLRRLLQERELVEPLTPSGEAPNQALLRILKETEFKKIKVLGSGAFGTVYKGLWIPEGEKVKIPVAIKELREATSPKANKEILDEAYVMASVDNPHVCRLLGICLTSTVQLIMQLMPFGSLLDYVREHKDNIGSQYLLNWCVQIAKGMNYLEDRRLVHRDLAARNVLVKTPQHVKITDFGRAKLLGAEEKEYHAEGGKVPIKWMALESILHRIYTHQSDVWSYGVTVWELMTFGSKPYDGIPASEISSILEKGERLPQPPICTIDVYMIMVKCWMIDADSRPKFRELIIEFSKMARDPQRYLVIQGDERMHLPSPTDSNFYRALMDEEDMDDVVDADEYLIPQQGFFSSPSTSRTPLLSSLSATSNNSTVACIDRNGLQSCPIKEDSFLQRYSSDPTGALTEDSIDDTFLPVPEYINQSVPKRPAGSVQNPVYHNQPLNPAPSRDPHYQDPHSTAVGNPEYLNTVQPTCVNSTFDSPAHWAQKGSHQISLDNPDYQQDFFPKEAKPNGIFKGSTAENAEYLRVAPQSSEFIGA
EGFR del19/T790M/C797S, sequence (P00533 with tags, fused parts or gaps DEL746-750/T790M/C797S): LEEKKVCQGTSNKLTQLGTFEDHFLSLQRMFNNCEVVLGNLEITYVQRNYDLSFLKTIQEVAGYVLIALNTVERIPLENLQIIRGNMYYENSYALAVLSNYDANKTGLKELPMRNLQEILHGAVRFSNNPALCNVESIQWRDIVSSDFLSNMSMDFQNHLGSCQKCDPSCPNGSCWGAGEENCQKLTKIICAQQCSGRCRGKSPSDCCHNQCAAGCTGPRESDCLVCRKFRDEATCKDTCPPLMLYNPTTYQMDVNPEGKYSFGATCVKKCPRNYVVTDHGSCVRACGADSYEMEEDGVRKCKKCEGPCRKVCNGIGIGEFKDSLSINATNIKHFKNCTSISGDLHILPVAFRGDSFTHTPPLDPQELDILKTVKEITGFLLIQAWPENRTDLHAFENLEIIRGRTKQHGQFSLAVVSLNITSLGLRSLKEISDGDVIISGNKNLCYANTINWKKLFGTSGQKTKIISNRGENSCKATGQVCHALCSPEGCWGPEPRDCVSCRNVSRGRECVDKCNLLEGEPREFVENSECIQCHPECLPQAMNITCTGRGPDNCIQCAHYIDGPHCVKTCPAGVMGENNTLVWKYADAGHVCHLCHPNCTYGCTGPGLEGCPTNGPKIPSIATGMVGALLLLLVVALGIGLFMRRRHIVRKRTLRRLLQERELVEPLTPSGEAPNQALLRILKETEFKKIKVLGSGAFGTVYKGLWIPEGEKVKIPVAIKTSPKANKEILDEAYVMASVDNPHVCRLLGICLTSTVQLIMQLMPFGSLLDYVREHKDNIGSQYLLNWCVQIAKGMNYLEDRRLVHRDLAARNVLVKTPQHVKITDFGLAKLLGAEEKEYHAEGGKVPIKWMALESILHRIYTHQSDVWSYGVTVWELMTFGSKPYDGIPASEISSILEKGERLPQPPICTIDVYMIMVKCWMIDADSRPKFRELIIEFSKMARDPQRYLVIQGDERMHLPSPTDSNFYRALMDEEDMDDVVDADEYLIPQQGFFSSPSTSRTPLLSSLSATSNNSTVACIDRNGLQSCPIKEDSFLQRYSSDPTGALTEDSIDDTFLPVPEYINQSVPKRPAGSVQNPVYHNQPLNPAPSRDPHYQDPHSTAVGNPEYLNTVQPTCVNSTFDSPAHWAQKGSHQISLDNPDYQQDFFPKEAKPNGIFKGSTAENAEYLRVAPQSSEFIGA

IC50 (EGFR del19/T790M/C797S; [1]) | IC50 (EGFR L858R/T790M/C797S; [2]) | IC50 (EGFR L858R/T790M/C797S; [3]) | IC50 (EGFR del19/C797S; IC50 del19/C797S, 100 μM ATP) | IC50 (EGFR L858R/C797S; [4]) | IC50 (EGFR wildtype; [5]) | IC50 (EGFR wildtype; IC50 WT, 100 μM ATP) | IC50 (EGFR del19/T790M/C797S; [6]) | IC50 (EGFR L858R/T790M/C797S; [7]) | IC50 (EGFR del19/C797S; [8]) | IC50 (EGFR L858R/C797S; [9]) | IC50 (EGFR wildtype; [10]) | IC50 (EGFR del19/C797S; [17]) | Compound | other results
0.5 nM | 0.5 nM | 1 nM | 4.9 nM | 2.3 nM | 3.7 nM | > 10000 nM |  |  |  |  |  |  | CC(C)(F)c1ccc(-c2cnc(Nc3ccnc(-c4cnn(S(=O)(=O)C5CC5)c4)n3)cc2N[C@H]2CC[C@@](C)(O)CC2)nc1 [Example 291, (1s,4s)-4-((6′-((2-(1-(Cyclopropylsulfonyl)-1H-pyrazol-4-yl)pyrimidin-4-yl)amino)-5-(2-fluoropropan-2-yl)-[2,3′-bipyridin]-4′-yl)amino)-1-methylcyclohexan-1-ol] | IC50 (EGFR L858R/C797S; IC50 L858R/C797S, 100 μM ATP): 2.8 nM
0.1 nM | 0.1 nM | 0.2 nM | 0.3 nM | 0.4 nM |  | > 10000 nM |  |  |  |  |  | 0.3 nM | CS(=O)(=O)c1ccc(-c2cnc(Nc3ccnc(-c4cnn(S(=O)(=O)C5CC5)c4)n3)cc2N[C@H]2CC[C@@](C)(O)CC2)nc1 [Example 156, (1s,4s)-4-((6′-((2-(1-(Cyclopropylsulfonyl)-1H-pyrazol-4-yl)pyrimidin-4-yl)amino)-5-(methylsulfonyl)-[2,3′-bipyridin]-4′-yl)amino)-1-methylcyclohexan-1-ol] | IC50 (EGFR del19/T790M/C797S; [11]): 0.2 nM
 |  |  |  |  |  |  | 1.6 nM | 0.7 nM | 2.4 nM | 1.8 nM | 21 nM |  | C[C@]1(O)CC[C@@H](Nc2cc(Nc3ccnc(-c4cnn(S(=O)(=O)C5CC5)c4)n3)ncc2-c2ccc(OC(F)F)cn2)CC1 [Example 332, (1s,4s)-4-((6′-((2-(1-(Cyclopropylsulfonyl)-1H-pyrazol-4-yl)pyrimidin-4-yl)amino)-5-(difluoromethoxy)-[2,3′-bipyridin]-4′-yl)amino)-1-methylcyclohexan-1-ol] | 
 |  |  |  |  |  |  | 5.8 nM | 2.6 nM | 1840 nM | 1780 nM | 248 nM |  | COc1c(F)ccnc1-c1cnc(Nc2ccnc(-c3cnn(S(=O)(=O)C4CC4)c3)n2)cc1N[C@H]1CC[C@@](C)(O)CC1 [Example 335, (1s,4s)-4-((6′-((2-(1-(Cyclopropylsulfonyl)-1H-pyrazol-4-yl)pyrimidin-4-yl)amino)-4-fluoro-3-methoxy-[2,3′-bipyridin]-4′-yl)amino)-1-methylcyclohexan-1-ol] | 

The next lines start with the molecule.

Compound | IC50 (EGFR del19/T790M/C797S; [1]) | IC50 (EGFR L858R/T790M/C797S; [2]) | IC50 (EGFR L858R/T790M/C797S; [3]) | IC50 (EGFR del19/C797S; IC50 del19/C797S, 100 μM ATP) | IC50 (EGFR L858R/C797S; [4]) | IC50 (EGFR wildtype; [5]) | IC50 (EGFR wildtype; IC50 WT, 100 μM ATP) | IC50 (EGFR del19/T790M/C797S; [6]) | IC50 (EGFR L858R/T790M/C797S; [7]) | IC50 (EGFR del19/C797S; [8]) | IC50 (EGFR L858R/C797S; [9]) | IC50 (EGFR wildtype; [10]) | IC50 (EGFR del19/C797S; [17]) | other results
CC(C)Nc1cc(Nc2ccnc(-c3cnn(S(=O)(=O)C4CC4)c3)n2)ncc1-c1ccc(N2CCOCC2)cn1 [Example 124, N^6′-(2-(1-(Cyclopropylsulfonyl)-1H-pyrazol-4-yl)pyrimidin-4-yl)-N^4′-isopropyl-5-morpholino-[2,3′-bipyridine]-4′,6′-diamine] |  |  |  |  |  |  |  | 0.3 nM | 0.4 nM | 3.3 nM | 0.4 nM | 12.7 nM |  | 
CC(C)(O)[C@H]1CC[C@@H](Nc2cc(Nc3ccnc(-c4cnn(S(=O)(=O)C5CC5)c4)n3)ncc2-c2ccc(OC(F)(F)F)cn2)CC1 [Example 196, 2-((1s,4s)-4-((6′-((2-(1-(Cyclopropylsulfonyl)-1H-pyrazol-4-yl)pyrimidin-4-yl)amino)-5-(trifluoromethoxy)-[2,3′-bipyridin]-4′-yl)amino)cyclohexyl)propan-2-ol] |  |  | 9.5 nM | 135 nM |  |  | > 10000 nM |  |  |  |  |  |  | IC50 (EGFR del19/T790M/C797S; [11]): 14.7 nM; IC50 (EGFR L858R/C797S; IC50 L858R/C797S, 100 μM ATP): > 10000 nM
C[C@]1(O)CC[C@@H](Nc2cc(Nc3ccnc(-c4cnn(S(=O)(=O)C5CC5)c4)n3)ncc2-c2cccc(CN3CCOCC3)n2)CC1 [Example 29, (1s,4s)-4-((6′-((2-(1-(Cyclopropylsulfonyl)-1H-pyrazol-4-yl)pyrimidin-4-yl)amino)-6-(morpholinomethyl)-[2,3′-bipyridin]-4′-yl)amino)-1-methylcyclohexan-1-ol] |  |  |  |  |  |  |  |  |  |  |  |  |  | IC50 (EGFR del19/T790M/C797S; [12]): 0.2 nM; IC50 (EGFR L858R/T790M/C797S; [13]): 0.4 nM; IC50 (EGFR del19/C797S; [14]): 1.8 nM; IC50 (EGFR L858R/C797S; [15]): 26.2 nM; IC50 (EGFR wildtype; [16]): > 10000 nM
CN1CCC(Oc2ccc(-c3cnc(Nc4ccnc(-c5cnn(CC(F)F)c5)n4)cc3NC3CCCC(F)C3)nc2)CC1 (stereo not shown) [Example 141, N^6′-(2-(1-(2,2-Difluoroethyl)-1H-pyrazol-4-yl)pyrimidin-4-yl)-N^4′-(3-fluorocyclohexyl)-5-((1-methylpiperidin-4-yl)oxy)-[2,3′-bipyridine]-4′,6′-diamine] |  |  |  |  |  |  |  | 0.03 nM | 0.1 nM | 1.2 nM | 0.8 nM | 12.4 nM |  | 
CC(C)(O)c1ccc(-c2cnc(Nc3ccnc(-c4cnn(S(=O)(=O)C5CC5)c4)n3)cc2NC2CCC(F)CC2)nc1 (stereo not shown) [Example 174, 2-(6′-((2-(1-(Cyclopropylsulfonyl)-1H-pyrazol-4-yl)pyrimidin-4-yl)amino)-4′-((4-fluorocyclohexyl)amino)-[2,3′-bipyridin]-5-yl)propan-2-ol] | 2.5 nM | 1.1 nM |  |  | 1.8 nM | 23.4 nM |  |  |  |  |  |  | 7.7 nM | 
O=S(=O)(C1CC1)n1cc(-c2nccc(Nc3cc(N[C@H]4CC[C@@H](CO)CC4)c(-c4cc(N5CCC(F)(F)CC5)ccn4)cn3)n2)cn1 [Example 100, ((1s,4s)-4-((6′-((2-(1-(Cyclopropylsulfonyl)-1H-pyrazol-4-yl)pyrimidin-4-yl)amino)-4-(4,4-difluoropiperidin-1-yl)-[2,3′-bipyridin]-4′-yl)amino)cyclohexyl)methanol] |  |  |  |  |  |  |  | 6.4 nM | 1.3 nM | 6.5 nM | 12.9 nM | 12.7 nM |  | IC50 (EGFR del19/T790M/C797S; [12]): 8.1 nM; IC50 (EGFR L858R/T790M/C797S; [13]): 5.3 nM; IC50 (EGFR del19/C797S; [14]): 10.8 nM; IC50 (EGFR L858R/C797S; [15]): 24.9 nM; IC50 (EGFR wildtype; [16]): 7220 nM
O=C(c1ccc(-c2cnc(Nc3ccnc(-c4cnn(S(=O)(=O)C5CC5)c4)n3)cc2N[C@H]2CC[C@@H](CO)CC2)nc1)N1CCOCC1 [Example 200, (6′-((2-(1-(Cyclopropylsulfonyl)-1H-pyrazol-4-yl)pyrimidin-4-yl)amino)-4′-(((1s,4s)-4-(hydroxymethyl)cyclohexyl)amino)-[2,3′-bipyridin]-5-yl)(morpholino)methanone] | 0.1 nM | 0.1 nM | 0.2 nM | 0.3 nM | 0.2 nM | 0.6 nM | 134 nM |  |  |  |  |  | 0.3 nM | IC50 (EGFR del19/T790M/C797S; [11]): 0.2 nM; IC50 (EGFR L858R/C797S; IC50 L858R/C797S, 100 μM ATP): 0.6 nM
CC(C)Nc1cc(Nc2ccnc(-c3cnn(S(=O)(=O)C4CC4)c3)n2)ncc1-c1ccc(OC2CCN(C)CC2)cn1 [Example 249, N^6′-(2-(1-(Cyclopropylsulfonyl)-1H-pyrazol-4-yl)pyrimidin-4-yl)-N^4′-isopropyl-5-((1-methylpiperidin-4-yl)oxy)-[2,3′-bipyridine]-4′,6′-diamine] | 0.5 nM | 0.2 nM |  |  | 0.2 nM | 2.8 nM |  |  |  |  |  |  | 0.4 nM | 
CC(C)(O)c1cc(-c2cnc(Nc3ccnc(-c4cnn(S(=O)(=O)C5CC5)c4)n3)cc2N[C@H]2CC[C@@H](C(C)(C)O)CC2)ncc1F [Example 106, 2-(6′-((2-(1-(Cyclopropylsulfonyl)-1H-pyrazol-4-yl)pyrimidin-4-yl)amino)-5-fluoro-4′-(((1s,4s)-4-(2-hydroxypropan-2-yl)cyclohexyl)amino)-[2,3′-bipyridin]-4-yl)propan-2-ol] |  |  |  |  |  |  |  | 6.2 nM | 2.6 nM |  | 4.1 nM | 37.8 nM |  | IC50 (EGFR del19/T790M/C797S; [12]): 8.6 nM; IC50 (EGFR L858R/T790M/C797S; [13]): 4.1 nM; IC50 (EGFR del19/C797S; [14]): 11.2 nM; IC50 (EGFR L858R/C797S; [15]): 9.6 nM; IC50 (EGFR wildtype; [16]): 3710 nM
